Holding throughout (format): biochemical
The target of test [1] is human JAK1 (a.a. 837-1142) (Homo sapiens, UniProt P23458). The test can be described thus: In vitro JAK kinase assay (HTRF, phosphorylation of a biotinylated peptide), JAK1. The conditions noted are these: measured at 1 mM ATP. Summed up: (§1)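 N-terminal His-tagged catalytic domains, baculovirus-expressed in insect cells, phosphorylated a biotinylated peptide for 1 hr at room temperature. EDTA stop was followed by SA-APC and Eu-Py20 antibody for 40 minutes, with phosphopeptide read by HTRF.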

Test [2] deals with human JAK1 (a.a. 837-1142). Described as above. The conditions noted are these: ratio of JAK2 IC50 to JAK1 IC50, measured at 1 mM ATP. Summed up:
as §1

The next test has as its target Jak2 (a.a. 828-1132) (Homo sapiens (Human), UniProt O60674). Kind of test: In vitro JAK kinase assay (HTRF, phosphorylation of a biotinylated peptide), JAK2. To be noted: measured at 1 mM ATP. Put shortly:
as §1

Sequence of Jak2 (a.a. 828-1132) (O60674 828-1132): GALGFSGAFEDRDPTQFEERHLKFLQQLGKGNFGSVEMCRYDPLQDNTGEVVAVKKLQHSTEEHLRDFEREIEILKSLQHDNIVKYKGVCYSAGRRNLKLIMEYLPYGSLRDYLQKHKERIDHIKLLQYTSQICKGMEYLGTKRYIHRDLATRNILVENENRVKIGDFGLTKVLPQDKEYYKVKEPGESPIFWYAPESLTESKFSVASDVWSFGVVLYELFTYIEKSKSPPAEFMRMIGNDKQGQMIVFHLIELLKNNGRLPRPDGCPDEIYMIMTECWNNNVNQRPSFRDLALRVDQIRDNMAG

By IC50 is commonly meant the concentration that inhibits the measured activity by half. A low value points to higher potency. `Cn1c(NC(=O)N2CCC(N3CC(CC#N)(n4cc(-c5ncnc6[nH]ccc56)cn4)C3)CC2)nc2ccccc21` [Example 194, 4-{3-(cyanomethyl)-3-[4-(7H-pyrrolo[2,3-d]pyrimidin-4-yl)-1H-pyrazol-1-yl]azetidin-1-yl}-N-(1-methyl-1H-benzimidazol-2-yl)piperidine-1-carboxamide]: the figures for the IC50 (in test [1]; against Jak2 (a.a. 828-1132)) were not above 0.005 µM and not above 0.01 µM, respectively. Further, the “IC50 Ratio JAK2/JAK1” value in test [2] is given as 2.2.
On to `N#CCC1(n2cc(-c3ncnc4[nH]ccc34)cn2)CN(C2CCN(C(=O)Nc3nc(-c4ccc(Cl)cc4)cs3)CC2)C1` [Example 195, N-[4-(4-chlorophenyl)-1,3-thiazol-2-yl]-4-{3-(cyanomethyl)-3-[4-(7H-pyrrolo[2,3-d]pyrimidin-4-yl)-1H-pyrazol-1-yl]azetidin-1-yl}piperidine-1-carboxamide], for which the IC50 in test [1] fell in the range of 0.02 to 0.03 µM; against Jak2 (a.a. 828-1132) it was 0.05 to 0.1 µM. Besides, in test [2], the “IC50 Ratio JAK2/JAK1” value amounted to 3.2.
Turning to `CCn1nccc1NC(=O)N1CCC(N2CC(CC#N)(n3cc(-c4ncnc5[nH]ccc45)cn3)C2)CC1` [Example 196, 4-{3-(cyanomethyl)-3-[4-(7H-pyrrolo[2,3-d]pyrimidin-4-yl)-1H-pyrazol-1-yl]azetidin-1-yl}-N-(1-ethyl-1H-pyrazol-5-yl)piperidine-1-carboxamide], the IC50 lay within 0.005 to 0.02 µM in test [1] and 0.05 to 0.1 µM at Jak2 (a.a. 828-1132). The “IC50 Ratio JAK2/JAK1” value in test [2] is 9.9.
For `Cc1cc(NC(=O)N2CCC(N3CC(CC#N)(n4cc(-c5ncnc6[nH]ccc56)cn4)C3)CC2)n(C)n1` [Example 197, 4-{3-(cyanomethyl)-3-[4-(7H-pyrrolo[2,3-d]pyrimidin-4-yl)-1H-pyrazol-1-yl]azetidin-1-yl}-N-(1,3-dimethyl-1H-pyrazol-5-yl)piperidine-1-carboxamide], the IC50 in test [1] lay in the range of 0.005 to 0.02 µM; at Jak2 (a.a. 828-1132), 0.01 to 0.05 µM. Besides, the “IC50 Ratio JAK2/JAK1” value in test [2] amounted to 3.2.
In the same order, the values of `Cc1ncccc1NC(=O)N1CCC(N2CC(CC#N)(n3cc(-c4ncnc5[nH]ccc45)cn3)C2)CC1` [Example 198, 4-{3-(cyanomethyl)-3-[4-(7H-pyrrolo[2,3-d]pyrimidin-4-yl)-1H-pyrazol-1-yl]azetidin-1-yl}-N-(2-methylpyridin-3-yl)piperidine-1-carboxamide] are not above 0.005 µM, 0.01 to 0.05 µM and 4.4.
Take `Cc1nc(F)ccc1NC(=O)N1CCC(N2CC(CC#N)(n3cc(-c4ncnc5[nH]ccc45)cn3)C2)CC1` [Example 199, 4-{3-(cyanomethyl)-3-[4-(7H-pyrrolo[2,3-d]pyrimidin-4-yl)-1H-pyrazol-1-yl]azetidin-1-yl}-N-(6-fluoro-2-methylpyridin-3-yl)piperidine-1-carboxamide]: the results for the concentration for half-maximal inhibition (IC50) (in test [1]; at Jak2 (a.a. 828-1132)) were not above 0.005 µM and 0.01 to 0.05 µM, respectively. The “IC50 Ratio JAK2/JAK1” value in test [2] was determined as 10.0.
Consider `Cc1ccc(NC(=O)N2CCC(N3CC(CC#N)(n4cc(-c5ncnc6[nH]ccc56)cn4)C3)CC2)c(F)n1` [Example 200, 4-{3-(cyanomethyl)-3-[4-(7H-pyrrolo[2,3-d]pyrimidin-4-yl)-1H-pyrazol-1-yl]azetidin-1-yl}-N-(2-fluoro-6-methylpyridin-3-yl)piperidine-1-carboxamide], for which the IC50 is not above 0.005 µM in test [1] and 0.01 to 0.05 µM against Jak2 (a.a. 828-1132). Besides, the “IC50 Ratio JAK2/JAK1” value in test [2] came to 6.7.
In the case of `N#CCC1(n2cc(-c3ncnc4[nH]ccc34)cn2)CN(C2CCN(C(=O)Nc3ncccc3C(F)(F)F)CC2)C1` [Example 201, 4-{3-(cyanomethyl)-3-[4-(7H-pyrrolo[2,3-d]pyrimidin-4-yl)-1H-pyrazol-1-yl]azetidin-1-yl}-N-[3-(trifluoromethyl)pyridin-2-yl]piperidine-1-carboxamide], the half-inhibitory concentration (IC50) in test [1] was in the range of 0.005 to 0.02 µM; at Jak2 (a.a. 828-1132), 0.01 to 0.05 µM. Besides, the “IC50 Ratio JAK2/JAK1” value in test [2] is reported as 3.6.
Turning to `N#CCC1(n2cc(-c3ncnc4[nH]ccc34)cn2)CN(C2CCN(C(=O)Nc3ncccc3F)CC2)C1` [Example 202, 4-{3-(cyanomethyl)-3-[4-(7H-pyrrolo[2,3-d]pyrimidin-4-yl)-1H-pyrazol-1-yl]azetidin-1-yl}-N-(3-fluoropyridin-2-yl)piperidine-1-carboxamide], the IC50 in test [1] was not above 0.005 µM; on Jak2 (a.a. 828-1132), 0.01 to 0.05 µM. Also, the “IC50 Ratio JAK2/JAK1” value in test [2] is on record as 6.4.
In the case of `N#CCC1(n2cc(-c3ncnc4[nH]ccc34)cn2)CN(C2CCN(C(=O)Nc3ncc(F)cc3F)CC2)C1` [Example 203, 4-{3-(cyanomethyl)-3-[4-(7H-pyrrolo[2,3-d]pyrimidin-4-yl)-1H-pyrazol-1-yl]azetidin-1-yl}-N-(3,5-difluoropyridin-2-yl)piperidine-1-carboxamide], the half-inhibitory concentration (IC50) in test [1] was in the range of 0.005 to 0.02 µM; on Jak2 (a.a. 828-1132) it was 0.05 to 0.1 µM. The “IC50 Ratio JAK2/JAK1” value in test [2] was determined as 8.6.
As for `COc1ncccc1NC(=O)N1CCC(N2CC(CC#N)(n3cc(-c4ncnc5[nH]ccc45)cn3)C2)CC1` [Example 204, 4-{3-(cyanomethyl)-3-[4-(7H-pyrrolo[2,3-d]pyrimidin-4-yl)-1H-pyrazol-1-yl]azetidin-1-yl}-N-(2-methoxypyridin-3-yl)piperidine-1-carboxamide], the half-inhibitory concentration (IC50) in test [1] was not above 0.005 µM; on Jak2 (a.a. 828-1132), 0.01 to 0.05 µM. In test [2], the “IC50 Ratio JAK2/JAK1” value turned out to be 4.0.
For `Cc1nc(C(F)(F)F)ccc1NC(=O)N1CCC(N2CC(CC#N)(n3cc(-c4ncnc5[nH]ccc45)cn3)C2)CC1` [Example 205, 4-{3-(cyanomethyl)-3-[4-(7H-pyrrolo[2,3-d]pyrimidin-4-yl)-1H-pyrazol-1-yl]azetidin-1-yl}-N-[2-methyl-6-(trifluoromethyl)pyridin-3-yl]piperidine-1-carboxamide], the IC50 in test [1] is 0.005 to 0.02 µM; against Jak2 (a.a. 828-1132), 0.01 to 0.05 µM. Further, the “IC50 Ratio JAK2/JAK1” value in test [2] is 4.4.
Turning to `COC(=O)c1ccccc1NC(=O)N1CCC(N2CC(CC#N)(n3cc(-c4ncnc5[nH]ccc45)cn3)C2)CC1` [Example 206, methyl 2-{[(4-{3-(cyanomethyl)-3-[4-(7H-pyrrolo[2,3-d]pyrimidin-4-yl)-1H-pyrazol-1-yl]azetidin-1-yl}piperidin-1-yl)carbonyl]amino}benzoate], the IC50 was not above 0.005 µM in test [1] and not above 0.01 µM against Jak2 (a.a. 828-1132). Also, the “IC50 Ratio JAK2/JAK1” value in test [2] stood at 1.6.
Take `COC(=O)c1cc(F)ccc1NC(=O)N1CCC(N2CC(CC#N)(n3cc(-c4ncnc5[nH]ccc45)cn3)C2)CC1` [Example 207, methyl 2-{[(4-{3-(cyanomethyl)-3-[4-(7H-pyrrolo[2,3-d]pyrimidin-4-yl)-1H-pyrazol-1-yl]azetidin-1-yl}piperidin-1-yl)carbonyl]amino}-5-fluorobenzoate]: the results for the IC50 (in test [1]; against Jak2 (a.a. 828-1132)) were not above 0.005 µM and not above 0.01 µM, respectively. Also, the “IC50 Ratio JAK2/JAK1” value in test [2] is 2.5.
With `COC(=O)c1ccc(NC(=O)N2CCC(N3CC(CC#N)(n4cc(-c5ncnc6[nH]ccc56)cn4)C3)CC2)c(F)c1` [Example 208, methyl 4-{[(4-{3-(cyanomethyl)-3-[4-(7H-pyrrolo[2,3-d]pyrimidin-4-yl)-1H-pyrazol-1-yl]azetidin-1-yl}piperidin-1-yl)carbonyl]amino}-3-fluorobenzoate], the figures for the IC50 (in test [1]; at Jak2 (a.a. 828-1132)) were not above 0.005 µM and 0.01 to 0.05 µM, respectively. The “IC50 Ratio JAK2/JAK1” value in test [2] is on record as 4.8.
Regarding `CN(C)c1ccc(CN2CCC(N3CC(CC#N)(n4cc(-c5ncnc6[nH]ccc56)cn4)C3)CC2)c(F)c1C#N` [Example 209, 3-[(4-{3-(Cyanomethyl)-3-[4-(7H-pyrrolo[2,3-d]pyrimidin-4-yl)-1H-pyrazol-1-yl]azetidin-1-yl}piperidin-1-yl)methyl]-6-(dimethylamino)-2-fluorobenzonitrile], the results for the concentration for half-maximal inhibition (IC50) (in test [1]; against Jak2 (a.a. 828-1132)) were not above 0.005 µM and 0.01 to 0.05 µM, respectively. Moreover, the “IC50 Ratio JAK2/JAK1” value in test [2] is 19.0.
On to `N#CCC1(n2cc(-c3ncnc4[nH]ccc34)cn2)CN(C2CCN(Cc3cc(Cl)cc(Cl)c3)CC2)C1` [Example 210, {1-[1-(3,5-dichlorobenzyl)piperidin-4-yl]-3-[4-(7H-pyrrolo[2,3-d]pyrimidin-4-yl)-1H-pyrazol-1-yl]azetidin-3-yl}acetonitrile], for which the figures for the IC50 (in test [1]; at Jak2 (a.a. 828-1132)) were not above 0.005 µM and not above 0.01 µM, respectively. Also, in test [2], the “IC50 Ratio JAK2/JAK1” value is reported as 4.3.
In the case of `N#CCC1(n2cc(-c3ncnc4[nH]ccc34)cn2)CN(C2CCN(Cc3cc(C(F)(F)F)ccc3Cl)CC2)C1` [Example 211, {1-{1-[2-chloro-5-(trifluoromethyl)benzyl]piperidin-4-yl}-3-[4-(7H-pyrrolo[2,3-d]pyrimidin-4-yl)-1H-pyrazol-1-yl]azetidin-3-yl}acetonitrile], the IC50 lay in the range of 0.005 to 0.02 µM in test [1] and 0.01 to 0.05 µM against Jak2 (a.a. 828-1132). In addition, the “IC50 Ratio JAK2/JAK1” value in test [2] came to 5.0.
Regarding `N#CCC1(n2cc(-c3ncnc4[nH]ccc34)cn2)CN(C2CCN(Cc3cccc(C(F)(F)F)c3F)CC2)C1` [Example 212, {1-{-[2-fluoro-3-(trifluoromethyl)benzyl]piperidin-4-yl}-3-[4-(7H-pyrrolo[2,3-d]pyrimidin-4-yl)-1H-pyrazol-1-yl]azetidin-3-yl}acetonitrile], the half-maximal inhibitory concentration (IC50) in test [1] is 0.005 to 0.02 µM; against Jak2 (a.a. 828-1132), 0.05 to 0.1 µM. The “IC50 Ratio JAK2/JAK1” value in test [2] is on record as 7.8.
In the same order, the values of `N#CCC1(n2cc(-c3ncnc4[nH]ccc34)cn2)CN(C2CCN(Cc3c(F)cccc3C(F)(F)F)CC2)C1` [Example 213, {1-{1-[2-fluoro-6-(trifluoromethyl)benzyl]piperidin-4-yl}-3-[4-(7H-pyrrolo[2,3-d]pyrimidin-4-yl)-1H-pyrazol-1-yl]azetidin-3-yl}acetonitrile] are not above 0.005 µM, 0.01 to 0.05 µM and 9.7.
As for `N#CCC1(n2cc(-c3ncnc4[nH]ccc34)cn2)CN(C2CCN(Cc3cc4ccccc4nc3Cl)CC2)C1` [Example 214, {1-{1-[(2-chloroquinolin-3-yl)methyl]piperidin-4-yl}-3-[4-(7H-pyrrolo[2,3-d]pyrimidin-4-yl)-1H-pyrazol-1-yl]azetidin-3-yl}acetonitrile], the concentration for half-maximal inhibition (IC50) in test [1] fell in the range of 0.005 to 0.02 µM; against Jak2 (a.a. 828-1132) it was 0.01 to 0.05 µM. Also, the “IC50 Ratio JAK2/JAK1” value in test [2] came out at 2.5.
